# Biological target: T1, human CCR6 (Homo sapiens, UniProt P51684)
# T1 construct: expressed in transfected cells; host or cells: HEK-293
# T1 sequence (P51684 1-374): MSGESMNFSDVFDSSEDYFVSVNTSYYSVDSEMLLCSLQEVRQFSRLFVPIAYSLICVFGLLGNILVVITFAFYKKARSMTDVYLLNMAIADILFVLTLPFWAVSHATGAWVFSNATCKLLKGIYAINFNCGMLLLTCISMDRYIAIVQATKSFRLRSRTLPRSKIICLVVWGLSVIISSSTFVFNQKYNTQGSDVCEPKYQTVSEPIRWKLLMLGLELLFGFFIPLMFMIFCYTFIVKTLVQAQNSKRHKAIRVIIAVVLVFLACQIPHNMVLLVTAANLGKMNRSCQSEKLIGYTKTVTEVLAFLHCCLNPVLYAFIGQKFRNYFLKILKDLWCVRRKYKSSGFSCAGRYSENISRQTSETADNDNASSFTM
# Experiment: FLIPR assay (inhibition of CCL20-induced calcium signal)
# Type: cell-based
# Settings: HEK-293 cells expressing human CCR6; mean values where determined several times; read-out: FLIPR IC50
# Procedure, shortened: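 IC50 values come from baseline-corrected peak calcium fluorescence after agonist. The agonist was CCL20 at 10 nM final, added to engineered human CCR6 HEK-293 cells following a 30-min, room-temperature, dark preincubation with serially diluted compound. Readings were taken in a fluorometric imaging plate reader.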
row,Structure (SMILES),IC50
1,"CCN1CC(C)([C@](O)(c2ccc(C(C)C)cc2)c2cncc(-c3noc(C(C)(C)O)n3)c2)C1 [Example 340, 2-(3-{5-[(R)-(1-Ethyl-3-methyl-azetidin-3-yl)-hydroxy-(4-isopropyl-phenyl)-methyl]-pyridin-3-yl}-[1,2,4]oxadiazol-5-yl)-propan-2-ol]",0.0794 µM
2,CC(C)c1ccc([C@](O)(c2cncc(-c3nc(C4CCN(C(=O)OCc5ccccc5)CC4)no3)c2)C2(C)CN(C)C2)cc1 [Example 341],0.0666 µM
3,CC(=O)N1CCC(c2noc(-c3cncc([C@@](O)(c4ccc(C(C)C)cc4)C4(C)CN(C)C4)c3)n2)CC1 [Example 342],0.154 µM
4,[2H]C([2H])([2H])C(=O)N1CC(c2nc(-c3cncc([C@@](O)(c4ccc(C(C)C)cc4)C4(C)CN(C)C4)c3)no2)C1 [Example 343],0.532 µM
5,[2H]C([2H])([2H])C(=O)N1CC(C)(c2nc(-c3cncc([C@@](O)(c4ccc(C(C)C)cc4)C4(C)CN(C)C4)c3)no2)C1 [Example 344],0.441 µM
6,[2H]C([2H])([2H])C(=O)N1CC(F)(c2nc(-c3cncc([C@@](O)(c4ccc(C(C)C)cc4)C4(C)CN(C)C4)c3)no2)C1 [Example 345],0.252 µM
7,CC(C)c1ccc([C@](O)(c2cncc(-c3noc(C(C)(C)N4CCOCC4)n3)c2)C2(C)CN(C)C2)cc1 [Example 346],0.0625 µM
8,CC(C)c1ccc([C@](O)(c2cncc(-c3noc(C4CCN(C)C(=O)C4)n3)c2)C2(C)CN(C)C2)cc1 (stereo partly shown) [Example 347],0.12 µM
9,CC(=O)N1CC[C@H](c2nc(-c3cncc([C@@](O)(c4ccc(C(C)C)cc4)C4(C)CN(C)C4)c3)no2)C1 [Example 348],0.135 µM
10,CC(=O)N1CC[C@@H](c2nc(-c3cncc([C@@](O)(c4ccc(C(C)C)cc4)C4(C)CN(C)C4)c3)no2)C1 [Example 349],0.113 µM
11,CC(=O)NC(C)(C)c1nc(-c2cncc([C@@](O)(c3ccc(C(C)C)cc3)C3(C)CN(C)C3)c2)no1 [Example 350],0.242 µM
12,CC(C)c1ccc([C@](O)(c2cncc(-c3noc(C4CCN(Cc5ccccc5)C4=O)n3)c2)C2(C)CN(C)C2)cc1 (stereo partly shown) [Example 351],0.0276 µM
13,CC(C)c1ccc([C@](O)(c2cncc(-c3noc(C4(C)CCN(C)C4=O)n3)c2)C2(C)CN(C)C2)cc1 (stereo partly shown) [Example 352],0.11 µM
14,CC(C)CN1CC(c2nc(-c3cncc([C@@](O)(c4ccc(C(C)C)cc4)C4(C)CN(C)C4)c3)no2)CC1=O (stereo partly shown) [Example 353],0.0403 µM
15,CC(C)c1ccc([C@](O)(c2cncc(-c3noc(C4CC(=O)N(Cc5ccco5)C4)n3)c2)C2(C)CN(C)C2)cc1 (stereo partly shown) [Example 354],0.029 µM
16,CC(C)c1ccc([C@](O)(c2cncc(-c3noc(C4CC(=O)N(c5ccccc5)C4)n3)c2)C2(C)CN(C)C2)cc1 (stereo partly shown) [Example 355],0.0248 µM
17,CC(C)c1ccc([C@](O)(c2cncc(-c3noc(C4CC(=O)N(Cc5ccccc5)C4)n3)c2)C2(C)CN(C)C2)cc1 (stereo partly shown) [Example 356],0.0127 µM
18,CC(C)c1ccc([C@](O)(c2cncc(-c3noc(C4CCC(=O)N4c4ccccc4)n3)c2)C2(C)CN(C)C2)cc1 (stereo partly shown) [Example 357],0.0261 µM
19,CC(C)c1ccc([C@](O)(c2cncc(-c3noc(C4CNC(=O)C4)n3)c2)C2(C)CN(C)C2)cc1 (stereo partly shown) [Example 358],0.131 µM
20,CC(C)c1ccc([C@](O)(c2cncc(-c3noc([C@@H]4CCC(=O)N4)n3)c2)C2(C)CN(C)C2)cc1 [Example 359],0.234 µM
21,CC(C)c1ccc([C@](O)(c2cncc(-c3noc([C@H]4CCC(=O)N4)n3)c2)C2(C)CN(C)C2)cc1 [Example 360],0.292 µM
22,CC(C)c1ccc([C@](O)(c2cncc(-c3noc([C@@H]4CCCC(=O)N4)n3)c2)C2(C)CN(C)C2)cc1 [Example 361],0.164 µM
23,CC(C)c1ccc([C@](O)(c2cncc(-c3noc(C4CCNC(=O)C4)n3)c2)C2(C)CN(C)C2)cc1 (stereo partly shown) [Example 362],0.09 µM
24,CC(C)c1ccc([C@](O)(c2cncc(-c3noc([C@@H]4CC(=O)N4)n3)c2)C2(C)CN(C)C2)cc1 [Example 363],0.178 µM
25,CC(C)c1ccc([C@](O)(c2cncc(-c3noc([C@@H]4CNC4=O)n3)c2)C2(C)CN(C)C2)cc1 [Example 364],0.142 µM
26,CC(C)c1ccc([C@](O)(c2cncc(-c3noc(C4CCNCC4)n3)c2)C2(C)CN(C)C2)cc1 [Example 367],0.321 µM

row,Structure (SMILES),IC50
1,CC(C)c1ccc([C@](O)(c2cncc(-c3noc(C4(C)CCNCC4)n3)c2)C2(C)CN(C)C2)cc1 [Example 368],0.271 µM
2,CC(C)c1ccc([C@](O)(c2cncc(-c3noc(C4(F)CCNCC4)n3)c2)C2(C)CN(C)C2)cc1 [Example 369],0.187 µM
3,"CCCC(=O)N1CCC(c2nc(-c3cncc([C@@](O)(c4ccc(C(C)C)cc4)C4(C)CN(C)C4)c3)no2)CC1 [Example 370, 1-[4-(3-{5-[(R)-(1,3-Dimethyl-azetidin-3-yl)-hydroxy-(4-isopropyl-phenyl)-methyl]-pyridin-3-yl}-[1,2,4]oxadiazol-5-yl)-piperidin-1-yl]-butan-1-one]",0.0659 µM
4,CC(C)c1ccc([C@](O)(c2cncc(-c3noc(C4CCN(C(=O)C(C)(C)C)CC4)n3)c2)C2(C)CN(C)C2)cc1 [Example 371],0.0497 µM
5,COCC(=O)N1CCC(c2nc(-c3cncc([C@@](O)(c4ccc(C(C)C)cc4)C4(C)CN(C)C4)c3)no2)CC1 [Example 372],0.103 µM
6,COCCC(=O)N1CCC(c2nc(-c3cncc([C@@](O)(c4ccc(C(C)C)cc4)C4(C)CN(C)C4)c3)no2)CC1 [Example 373],0.0889 µM
7,CC(C)c1ccc([C@](O)(c2cncc(-c3noc(C4CCN(C(=O)C5CC5)CC4)n3)c2)C2(C)CN(C)C2)cc1 [Example 374],0.039 µM
8,CC(C)c1ccc([C@](O)(c2cncc(-c3noc(C4CCN(C(=O)C5CCCC5)CC4)n3)c2)C2(C)CN(C)C2)cc1 [Example 375],0.0397 µM
9,CC(C)c1ccc([C@](O)(c2cncc(-c3noc(C4CCN(C(=O)C5CCOCC5)CC4)n3)c2)C2(C)CN(C)C2)cc1 [Example 376],0.102 µM
10,CC(C)c1ccc([C@](O)(c2cncc(-c3noc(C4CCN(C(=O)c5ccccc5)CC4)n3)c2)C2(C)CN(C)C2)cc1 [Example 377],0.0395 µM
11,COC(=O)N1CCC(c2nc(-c3cncc([C@@](O)(c4ccc(C(C)C)cc4)C4(C)CN(C)C4)c3)no2)CC1 [Example 378],0.0549 µM
12,CCOC(=O)N1CCC(c2nc(-c3cncc([C@@](O)(c4ccc(C(C)C)cc4)C4(C)CN(C)C4)c3)no2)CC1 [Example 379],0.0412 µM
13,COCCOC(=O)N1CCC(c2nc(-c3cncc([C@@](O)(c4ccc(C(C)C)cc4)C4(C)CN(C)C4)c3)no2)CC1 [Example 380],0.0715 µM
14,CC(C)c1ccc([C@](O)(c2cncc(-c3noc(C4CCN(S(C)(=O)=O)CC4)n3)c2)C2(C)CN(C)C2)cc1 [Example 381],0.0534 µM
15,CC(C)c1ccc([C@](O)(c2cncc(-c3noc(C4CCN(S(=O)(=O)C(C)C)CC4)n3)c2)C2(C)CN(C)C2)cc1 [Example 382],0.0437 µM
16,CCCS(=O)(=O)N1CCC(c2nc(-c3cncc([C@@](O)(c4ccc(C(C)C)cc4)C4(C)CN(C)C4)c3)no2)CC1 [Example 383],0.0538 µM
17,COCCS(=O)(=O)N1CCC(c2nc(-c3cncc([C@@](O)(c4ccc(C(C)C)cc4)C4(C)CN(C)C4)c3)no2)CC1 [Example 384],0.0421 µM
18,CC(C)c1ccc([C@](O)(c2cncc(-c3noc(C4CCN(S(=O)(=O)CCO)CC4)n3)c2)C2(C)CN(C)C2)cc1 [Example 385],0.117 µM
19,CC(C)c1ccc([C@](O)(c2cncc(-c3noc(C4CCN(S(=O)(=O)C5CCCC5)CC4)n3)c2)C2(C)CN(C)C2)cc1 [Example 386],0.041 µM
20,CC(C)c1ccc([C@](O)(c2cncc(-c3noc(C4CCN(S(=O)(=O)C5CCOCC5)CC4)n3)c2)C2(C)CN(C)C2)cc1 [Example 387],0.0551 µM
21,CNS(=O)(=O)N1CCC(c2nc(-c3cncc([C@@](O)(c4ccc(C(C)C)cc4)C4(C)CN(C)C4)c3)no2)CC1 [Example 388],0.0282 µM
22,"CNC1(c2nc(-c3cncc([C@@](O)(c4ccc(C(C)C)cc4)C4(C)CN(C)C4)c3)no2)CC1 [Example 389, (R)-(1,3-Dimethyl-azetidin-3-yl)-(4-isopropyl-phenyl)-{5-[5-(1-methylamino-cyclopropyl)-[1,2,4]oxadiazol-3-yl]-pyridin-3-yl}-methanol]",0.0581 µM
23,CCOC(=O)N(C)C1(c2nc(-c3cncc([C@@](O)(c4ccc(C(C)C)cc4)C4(C)CN(C)C4)c3)no2)CC1 [Example 390],0.175 µM
24,CC(C)c1ccc([C@](O)(c2cncc(-c3noc(C4(N(C)S(C)(=O)=O)CC4)n3)c2)C2(C)CN(C)C2)cc1 [Example 391],0.0588 µM
25,"CC(C)c1ccc([C@](O)(c2cnnc(OC3CCCC3(C)C)c2)C2(C)CN(C)C2)cc1 (stereo partly drawn) [Example 392, (R)-(1,3-Dimethyl-azetidin-3-yl)-[6-(2,2-dimethyl-cyclopentyloxy)-pyridazin-4-yl]-(4-isopropyl-phenyl)-methanol]",0.0242 µM
26,"CC(C)c1ccc([C@](O)(c2cnnc(OC3CCC(F)(F)C3)c2)C2(C)CN(C)C2)cc1 (stereo partly drawn) [Example 393, (R)-[6-(3,3-Difluoro-cyclopentyloxy)-pyridazin-4-yl]-(1,3-dimethyl-azetidin-3-yl)-(4-isopropyl-phenyl)-methanol]",0.0251 µM

# Reference: patent US12617773B2, “Azetidin-3-ylmethanol derivatives as CCR6 receptor modulators” (Idorsia Pharmaceuticals Ltd, priority 2020, dated 2026)
